Assay results as given in patent US20120004235A1, “METHODS TO TREAT CANCER” (Rutgers, The State University of New Jersey, priority 2009, published 2012).

Tests used:
[1] = tested on: HCT-116 human colon tumor xenograft; experiment: Compound 2 after oral administration vs. the HCT-116 xenograft model
[2] = tested on: Human DLD-1 Colon Tumor Xenograft Model; experiment: Test D xenograft, Compound 2 free base; format: in vivo, nu/nu mice
[3] = tested on: Human NCI-H292 Lung Tumor Xenograft Model; experiment: Test D xenograft, Compound 2 free base; conditions: for Increase in Life Span (ILS) / Tumor Growth Delay T-C / Tumor Growth Inhibition T/C (tumor volume): qod × 3 for 2 cycles
[4] = tested on: Human 786-0 Renal Cell Tumor Xenograft Model; experiment: Test D xenograft, Compound 2 free base; format: in vivo, nu/nu mice; conditions: qod × 3 for 2 cycles
[5] = tested on: Human SK-MEL-3 Melanoma Tumor Xenograft Model; experiment: Test D xenograft, Compound 2 free base; format: in vivo, nu/nu mice; conditions: qod × 3 for 2 cycles
Description: (§1) The anti-tumor activity of Compound 2 (free base) was evaluated against a variety of human tumor xenograft models. A summary of the studies, including tumor type, dosing and administration, growth inhibition, and major findings is presented below.

[6] = tested on: Human H460 Non-Small Cell Lung Carcinoma Tumor Xenograft Model; experiment: Test D xenograft, Compound 2 free base; format: in vivo, nu/nu mice; conditions: 1.36 mg/kg/day IV, qod × 3 for 2 cycles
Description: as §1

[7] = In vitro metabolic stability (Example 22); format: in vitro ADME; conditions: in vitro in mouse, rat, dog, and human
Description: (§2) The in vitro and in vivo activity of compound 2 and two of its metabolites (compound 5 and compound 6) were explored and compared with the activity of camptothecin Top1 inhibitors. […] In human HCT-116 colon ca, HT-29 colon ca and NCI-H460 NSCLC cells the concentration response for compound 2, compound 5 and compound 6 were the same. […] Compound 2 was administered intravenously on a QODx3 schedule for 2 cycles.

[8] = tested on: Human HCT-116 Colon Tumor Xenograft Model; experiment: Test D xenograft, Compound 2 and metabolites; conditions: 1.7 mg/kg/day IV, qod × 3 for 2 cycles
[9] = tested on: human HCT-116 colon ca, HT-29 colon ca and NCI-H460 NSCLC cells; experiment: 72 hour exposure concentration response in tumor cells (Example 22); format: cell-based; conditions: range over HCT-116, HT-29 and NCI-H460 cells and the three compounds
Description: as §2

[10] = In vitro plasma binding (Example 22); format: in vitro ADME; conditions: in vitro in mouse, rat, dog, and human
Description: as §2

[11] = tested on: Human H1299 Lung Tumor Xenograft Model; experiment: Test D xenograft, Compound 2 free base; conditions: qod × 3 for 2 cycles
[12] = Body weight loss across the Example 22 xenograft studies; format: in vivo, mice; conditions: all dosages IV QODx3 for 2 cycles, except the high dosages in HCT-15 and NCI-H292
Description: as §2

[13] = tested on: RPMI 8226 (multiple myeloma) human tumor cell line; experiment: Cell TiterGlo cell growth inhibition (Test C); format: cell-based; conditions: 72 hours exposure, ATP content luminescence
Description: The RPMI 8226 (multiple myeloma) human tumor cell line was exposed to Compound 2 (free base) (or simply referred to herein throughout as “Compound 2”) at concentrations covering a […] (0.1 nM -100 nM) with an exposure time of 72 hours and experimental endpoint of cell growth inhibition as determined by a Cell TiterGlo luminescence assay (Promega) for ATP content. At least two independent experiments were conducted. The results were plotted and trend lines were graphed. […] Exposure to Compound 2 produced exponential killing of cells in a manner consistent with potent inhibition of a critical molecular target.

[14] = tested on: Human HCT-15 Colon Tumor Xenograft Model; experiment: Test D xenograft, Compound 2 free base; format: in vivo, nu/nu mice; conditions: for Increase in Life Span (ILS) / Tumor Growth Delay T-C / Tumor Growth Inhibition T/C (tumor volume): qod × 3 for 2 cycles
[15] = 1.36 mg/kg/day PO, qod×3 weekly for 2 cycles
[16] = 2.72 mg/kg/day PO, qod×3 weekly for 2 cycles
[17] = PO dosages (0.68, 1.36, 2.72 mg/kg/day, qod×3 weekly for 2 cycles)
[18] = 1 mg/kg/day IV, qod × 3 for 2 cycles
[19] = 4 mg/kg/day IV/QODx3 for 2 cycles
[20] = high dosage, IV QODx3 for 2 cycles

With `CNCCn1c(=O)c2cc(OC)c(OC)cc2c2cnc3cc4c(cc3c21)OCO4` [Compound 2, 8,9-dimethoxy-2,3-methylenedioxy-5-[2-(N-methylamino)ethyl]-5H-dibenzo[c,h]1,6-naphthyridin-6-one] the TGD [1, 15] was “no effect on TGD”, the “TGI (T/C)” value [1, 15] was 57.6% and the ILS [1, 16] was 1.5 fold. For the same compound, the “TGD (T-C)” value [1, 16] was 18 days, the toxic deaths [1, 17] was “no toxic deaths” and the weight loss [1, 17] was less than 20%. For the same compound, the “Increase in Life Span (ILS)” value [2, 18] was 1.2x, the “Tumor Growth Delay T-C” value [2, 18] was 8 days and the “Tumor Growth Inhibition T/C (tumor volume)” value (from here on “Tumor Growth Inhibition T/C”) [2, 18] was 51.3%. The “ILS (T/C)” value [2, 19] was 1.2x, the “TGD (T-C)” value [2, 19] was 8 days and the “Increase in Life Span (ILS)” value ([3]; 1 mg/kg/day IV) was 1.5x. The “Tumor Growth Delay T-C” value ([3]; 1 mg/kg/day IV) was 18 days, the “Tumor Growth Inhibition T/C” value ([3]; 1 mg/kg/day IV) was 29.4% and the “Increase in Life Span (ILS)” value ([3]; 1.36 mg/kg/day IV) was 1.6x. For the same compound, the “Tumor Growth Delay T-C” value ([3]; 1.36 mg/kg/day IV) was 21 days, the “Tumor Growth Inhibition T/C” value ([3]; 1.36 mg/kg/day IV) was 25.2% and the “Increase in Life Span (ILS)” value ([3]; 1.7 mg/kg/day IV) was 1.6x. For the same compound, the “Tumor Growth Delay T-C” value ([3]; 1.7 mg/kg/day IV) was 21 days, the “Tumor Growth Inhibition T/C” value ([3]; 1.7 mg/kg/day IV) was 15.2% and the “maximum body weight loss” value [3, 20] was 20.9%. For the same compound, the “Increase in Life Span (ILS)” value ([4]; 1 mg/kg/day IV) was 1.2x, the “Tumor Growth Delay T-C” value ([4]; 1 mg/kg/day IV) was 10 days and the “Tumor Growth Inhibition T/C” value ([4]; 1 mg/kg/day IV) was 52.5%. The “Increase in Life Span (ILS)” value ([4]; 1.36 mg/kg/day IV) was 1.2x, the “Tumor Growth Delay T-C” value ([4]; 1.36 mg/kg/day IV) was 10 days and the “Tumor Growth Inhibition T/C” value ([4]; 1.36 mg/kg/day IV) was 52.2%. The “Increase in Life Span (ILS)” value ([4]; 1.7 mg/kg/day IV) was 1.4x, the “Tumor Growth Delay T-C” value ([4]; 1.7 mg/kg/day IV) was 17 days and the “Tumor Growth Inhibition T/C” value ([4]; 1.7 mg/kg/day IV) was 25.9%. The “Increase in Life Span (ILS)” value ([5]; 1 mg/kg/day IV) was 1.5x, the “Tumor Growth Delay T-C” value ([5]; 1 mg/kg/day IV) was 15 days and the “Tumor Growth Inhibition T/C” value ([5]; 1 mg/kg/day IV) was 22.0%. For the same compound, the “Increase in Life Span (ILS)” value ([5]; 1.36 mg/kg/day IV) was 2.3x, the “Tumor Growth Delay T-C” value ([5]; 1.36 mg/kg/day IV) was 35 days and the “Tumor Growth Inhibition T/C” value ([5]; 1.36 mg/kg/day IV) was 13.4%. The “Increase in Life Span (ILS)” value ([5]; 1.7 mg/kg/day IV) was 1.9x, the “Tumor Growth Delay T-C” value ([5]; 1.7 mg/kg/day IV) was 26 days and the “Tumor Growth Inhibition T/C” value ([5]; 1.7 mg/kg/day IV) was 16.7%. The “Increase in Life Span (ILS)” value [6] was 1.8x, the “Tumor Growth Delay T-C” value [6] was 21 days and the “Tumor Growth Inhibition T/C” value [6] was 14.1%. The metabolic stability [7] was “high metabolic stability”, the “Increase in Life Span (ILS)” value [8] was 1.9x and the “Tumor Growth Delay T-C” value [8] was 28 days. The “Tumor Growth Inhibition T/C” value [8] was 36.4%, the IC50 ([9]; read-out: IC50 concentrations) was 0.5 to 0.65 nM and the IC90 ([9]; read-out: IC90 concentrations) was 1.8 to 2 nM. The plasma binding [10] was 88-93%, the “Increase in Life Span (ILS)” value ([11]; 1 mg/kg/day IV) was 1.7x and the “Tumor Growth Delay T-C” value ([11]; 1 mg/kg/day IV) was 20 days. For the same compound, the “Tumor Growth Inhibition T/C” value ([11]; 1 mg/kg/day IV) was 22.6%, the “Increase in Life Span (ILS)” value ([11]; 1.36 mg/kg/day IV) was 1.8x and the “Tumor Growth Delay T-C” value ([11]; 1.36 mg/kg/day IV) was 24 days. For the same compound, the “Tumor Growth Inhibition T/C” value ([11]; 1.36 mg/kg/day IV) was 13.2%, the “Increase in Life Span (ILS)” value ([11]; 1.7 mg/kg/day IV) was 2.1x and the “Tumor Growth Delay T-C” value ([11]; 1.7 mg/kg/day IV) was 34 days. For the same compound, the “Tumor Growth Inhibition T/C” value ([11]; 1.7 mg/kg/day IV) was 8.7%, the “maximum body weight loss” value [12] was no more than 20% and the IC50 ([13]; read-out: IC50 concentration) was 3.4 nM. For the same compound, the IC90 ([13]; read-out: IC90 concentration) was 30 nM, the “Increase in Life Span (ILS)” value ([14]; 1 mg/kg/day IV) was 1.3x and the “Tumor Growth Delay T-C” value ([14]; 1 mg/kg/day IV) was 14 days. For the same compound, the “Tumor Growth Inhibition T/C” value ([14]; 1 mg/kg/day IV) was 37.1%, the “Increase in Life Span (ILS)” value ([14]; 2 mg/kg/day IV) was 1.8x and the “Tumor Growth Delay T-C” value ([14]; 2 mg/kg/day IV) was 35 days. For the same compound, the “Tumor Growth Inhibition T/C” value ([14]; 2 mg/kg/day IV) was 8.6% and the “maximum body weight loss” value [14, 20] was 25.7%.
